Results taken from publication PMC10508830 (Antiviral research, 2023).
Read-outs that look alike come from different tables or passages of the source.

Assays:
[1] = test system: A/black vulture/Florida/22-012331-001/2022; assay: microbe, parasite or virus in culture; format: cell-based, influenza A(H5N1) virus; conditions: Influenza A virus, read-out: Mean EC50 ± SD
[2] = test system: A/Louisiana/50/2017 A(H3N2); assay: microbe, parasite or virus in culture; format: cell-based; conditions: Influenza A virus, H3N2, read-out: Mean EC50 ± SD
[3] = test system: A/fox/Wisconsin/22-014746-030/2022; assay: microbe, parasite or virus in culture; format: cell-based, influenza A(H5N1) virus; conditions: Influenza A virus, read-out: Mean EC50 ± SD
[4] = test system: A/Illinois/08/2018 A(H1N1)pdm09; format: cell-based, influenza A(H1N1)pdm09 virus; conditions: read-out: Mean EC50 ± SD
[5] = test system: A/bald eagle/Florida/22-006544-004/2022; assay: microbe, parasite or virus in culture; format: cell-based, influenza A(H5N1) virus; conditions: Influenza A virus, read-out: Mean EC50 ± SD
[6] = test system: A/Illinois/08/2018 A(H1N1)pdm09; assay: microbe, parasite or virus in culture; format: cell-based, influenza A(H1N1)pdm09 virus; conditions: Influenza A virus, H1N1, read-out: Mean EC50 ± SD
[7] = biological target: NA of A/Illinois/45/2019 A(H1N1)pdm09 (Influenza A virus, UniProt A0A0X9QTS2); format: biochemical; conditions: read-out: Mean IC50 ± SD
[8] = biological target: NA of A/Cooper's hawk/Minnesota/22-012931-001/2022 (Influenza A virus, UniProt Q9Q0U7); format: biochemical, influenza A(H5N1) virus; conditions: read-out: Mean IC50 ± SD
[9] = biological target: NA of A/bald eagle/Florida/22-006544-004/2022 (Influenza A virus, UniProt Q9Q0U7); format: biochemical; conditions: read-out: Mean IC50 ± SD
[10] = biological target: NA of A/red-shouldered hawk/Minnesota/22-012000-004/2022 (Influenza A virus, UniProt Q9Q0U7); format: biochemical; conditions: read-out: Mean IC50 ± SD
[11] = biological target: NA of A/fox/Michigan/22-014536-004/2022 (del50-70) (Influenza A virus, UniProt Q9Q0U7); format: biochemical, influenza A(H5N1) virus; conditions: read-out: Mean IC50 ± SD
[12] = biological target: NA of A/turkey/Iowa/22-012098-001/2022 (Influenza A virus, UniProt Q9Q0U7); format: biochemical; conditions: read-out: Mean IC50 ± SD
[13] = biological target: NA of A/Canada goose/Wyoming/22-011671-001/2022 (Influenza A virus, UniProt Q9Q0U7); format: biochemical, influenza A(H5N1) virus; conditions: read-out: Mean IC50 ± SD
[14] = biological target: NA of A/black vulture/Florida/22-012333-001/2022 (N/S295, T/N438, mixed population) (Influenza A virus (H5N1), UniProt Q9Q0U7); format: biochemical; conditions: read-out: Mean IC50 ± SD
[15] = biological target: NA of A/fox/Wisconsin/22-013774-002/2022 (Influenza A virus, UniProt Q9Q0U7); format: biochemical; conditions: read-out: Mean IC50 ± SD
[16] = biological target: NA of A/black vulture/Maryland/22-012407-001/2022 (Influenza A virus (H5N1), UniProt Q9Q0U7); format: biochemical; conditions: read-out: Mean IC50 ± SD

Compound | EC50 [1] | EC50 [2] | EC50 [3] | EC50 [4] | EC50 [5] | EC50 [6] | IC50 [7] | IC50 [8] | IC50 [9] | IC50 [10] | IC50 [11] | IC50 [12] | IC50 [13] | IC50 [14] | IC50 [15] | IC50 [16]
O=C1c2c(O)c(=O)ccn2N([C@@H]2c3ccccc3SCc3c2ccc(F)c3F)[C@@H]2COCCN12 [Baloxavir, baloxavir acid] | 0.44 nM | 1.04 ± 0.43 nM | 0.32 nM | 1.12 ± 0.32 nM | 0.41 nM | 1.65 ± 0.44 nM | – | – | – | – | – | – | – | – | – | –
oseltamivir carboxylate | – | – | – | – | – | – | 0.17 ± 0.03 nM | – | – | – | – | – | – | – | – | –
peramivir | – | – | – | – | – | – | 0.06 ± 0.01 nM | 0.1 nM | 0.08 nM | 0.09 nM | 0.1 nM | 0.1 nM | 0.08 nM | 0.55 nM | 0.09 nM | 0.1 nM
